Assays:
[1] = test system: COR-L279 (Small Cell Lung Carcinoma); assay: Bliss excess, mean over the matrix (fraction); higher = more synergy
How it was run: (§1)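 Cell lines grown in DMEM/F12 or RPMI with 10% FBS were plated in 1536-well plates and held 24 hours at 37°C, 5% CO2 before 72 hours of exposure to two-drug dose matrices, with DMSO typically at 0.2%. CellTiter-Glo 2.0 luminescence gave viability, which was converted to inhibition. Vehicle wells were set to 0 and blank wells to 1. Combination Emax is the second-highest inhibition in the matrix, and Bliss excess is the observed combination effect minus the expected EA + EB − EA·EB, where EA and EB are the single-agent effects.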

[2] = test system: CW-2 (Colorectal Carcinoma); assay: as above
How it was run: as §1

[3] = test system: DMS-114 (Small Cell Lung Carcinoma); assay: as above
How it was run: as §1

[4] = test system: KU812 (Chronic Myelogenous Leukemia); assay: as above
How it was run: as §1

[5] = test system: KYSE-270 (Esophageal Squamous Cell Carcinoma); assay: as above
How it was run: as §1

M059J (Glioblastoma) [6] = assay: as above
How it was run: as §1

[7] = test system: MN-60 (B-Lymphoblastic Leukemia); assay: as above
How it was run: as §1

[8] = test system: MOG-G-CCM (Low Grade Glioma); assay: as above
How it was run: as §1

[9] = test system: NCCIT (Other Solid Carcinomas); assay: as above
How it was run: as §1

NCI-H2731 (Mesothelioma) [10] = assay: as above
How it was run: as §1

[11] = test system: NCI-H3122 (Lung Adenocarcinoma); assay: as above
How it was run: as §1

[12] = test system: NCI-H520 (Squamous Cell Lung Carcinoma); assay: as above
How it was run: as §1

[13] = test system: NCI-H526 (Small Cell Lung Carcinoma); assay: as above
How it was run: as §1

[14] = test system: NCI-H929 (Plasma Cell Myeloma); assay: as above
How it was run: as §1

[15] = test system: OCI-AML3 (Acute Myeloid Leukemia); assay: as above
How it was run: as §1

SJSA-1 (Osteosarcoma) [16] = assay: as above
How it was run: as §1

[17] = test system: SK-GT-4 (Esophageal Adenocarcinoma); assay: as above
How it was run: as §1

[18] = test system: ST486 (Burkitt's Lymphoma); assay: as above
How it was run: as §1

[19] = test system: T-T (Esophageal Squamous Cell Carcinoma); assay: as above
How it was run: as §1

[20] = test system: VMRC-RCZ (Kidney Carcinoma); assay: as above
How it was run: as §1

[21] = test system: COR-L279 (Small Cell Lung Carcinoma); assay: combination Emax (second highest fraction inhibited in the dose matrix, 72 h); higher = more inhibition; extreme values may be limits of the assay
How it was run: as §1

[22] = test system: CW-2 (Colorectal Carcinoma); assay: as above
How it was run: as §1

[23] = test system: DMS-114 (Small Cell Lung Carcinoma); assay: as above
How it was run: as §1

[24] = test system: KU812 (Chronic Myelogenous Leukemia); assay: as above
How it was run: as §1

[25] = test system: KYSE-270 (Esophageal Squamous Cell Carcinoma); assay: as above
How it was run: as §1

M059J (Glioblastoma) [26] = assay: as above
How it was run: as §1

[27] = test system: MN-60 (B-Lymphoblastic Leukemia); assay: as above
How it was run: as §1

[28] = test system: MOG-G-CCM (Low Grade Glioma); assay: as above
How it was run: as §1

[29] = test system: NCCIT (Other Solid Carcinomas); assay: as above
How it was run: as §1

NCI-H2731 (Mesothelioma) [30] = assay: as above
How it was run: as §1

[31] = test system: NCI-H3122 (Lung Adenocarcinoma); assay: as above
How it was run: as §1

[32] = test system: NCI-H520 (Squamous Cell Lung Carcinoma); assay: as above
How it was run: as §1

[33] = test system: NCI-H526 (Small Cell Lung Carcinoma); assay: as above
How it was run: as §1

[34] = test system: NCI-H929 (Plasma Cell Myeloma); assay: as above
How it was run: as §1

[35] = test system: OCI-AML3 (Acute Myeloid Leukemia); assay: as above
How it was run: as §1

SJSA-1 (Osteosarcoma) [36] = assay: as above
How it was run: as §1

[37] = test system: SK-GT-4 (Esophageal Adenocarcinoma); assay: as above
How it was run: as §1

[38] = test system: ST486 (Burkitt's Lymphoma); assay: as above
How it was run: as §1

[39] = test system: T-T (Esophageal Squamous Cell Carcinoma); assay: as above
How it was run: as §1

[40] = test system: VMRC-RCZ (Kidney Carcinoma); assay: as above
How it was run: as §1
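Throughout, for Bliss excess, mean over the matrix: after 72 h of two-drug dosing.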

SMILES | Bliss excess [1] | Bliss excess [2] | Bliss excess [3] | Bliss excess [4] | Bliss excess [5] | Bliss excess (M059J (Glioblastoma) [6]) | Bliss excess [7] | Bliss excess [8] | Bliss excess [9] | Bliss excess (NCI-H2731 (Mesothelioma) [10]) | Bliss excess [11] | Bliss excess [12] | Bliss excess [13] | Bliss excess [14] | Bliss excess [15] | Bliss excess (SJSA-1 (Osteosarcoma) [16]) | Bliss excess [17] | Bliss excess [18] | Bliss excess [19] | Bliss excess [20] | combination Emax [21] | combination Emax [22] | combination Emax [23] | combination Emax [24] | combination Emax [25] | combination Emax (M059J (Glioblastoma) [26]) | combination Emax [27] | combination Emax [28] | combination Emax [29] | combination Emax (NCI-H2731 (Mesothelioma) [30]) | combination Emax [31] | combination Emax [32] | combination Emax [33] | combination Emax [34] | combination Emax [35] | combination Emax (SJSA-1 (Osteosarcoma) [36]) | combination Emax [37] | combination Emax [38] | combination Emax [39] | combination Emax [40]
CN(CCO)CC[C@H](CSc1ccccc1)Nc1ccc(S(=O)(=O)NC(=O)c2ccc(N3CCC([C@@H](O)c4ccccc4-c4ccc(Cl)cc4)CC3)cc2)cc1S(=O)(=O)C(F)(F)F [AZD4320] + Nc1ccn([C@@H]2O[C@H](CO)[C@@H](O)C2(F)F)c(=O)n1 [Gemcitabine] (first compound max 1 µM, 7x7, partner max 0.3 µM) | 0.0843 | -0.058 | 0.0444 | -0.0788 | -0.0293 | -0.0021 | -0.0618 | -0.0629 | -0.0058 | 0.0222 | -0.0298 | -0.0178 | 0.0952 | -0.0176 | 0.0034 | 0.0439 | -0.0288 | -0.0194 | 0.0546 | 0.0103 | 1 | 0.557 | 0.524 | 0.954 | 0.89 | 0.837 | 0.493 | 0.597 | 0.187 | 0.44 | 0.846 | 0.894 | 0.993 | 0.9 | 0.984 | 0.952 | 0.31 | 0.972 | 0.476 | 0.589
C[C@@H]1COCCN1c1cc(C2([S@](C)(=N)=O)CC2)nc(-c2ccnc3[nH]ccc23)n1 [AZD6738] + Nc1ccn([C@@H]2O[C@H](CO)[C@@H](O)C2(F)F)c(=O)n1 [Gemcitabine] (first compound max 10 µM, 7x7, partner max 0.3 µM) | 0.0205 | 0.0109 | 0.0549 | -0.0077 | 0.0806 | 0.0209 | -0.0375 | 0.0311 | 0.107 | 0.0371 | 0.0297 | 0.0434 | 0.0678 | 0 | -0.0143 | -0.0104 | 0.023 | 0.0362 | 0.221 | 0.0193 | 0.995 | 0.659 | 0.78 | 0.853 | 1 | 0.823 | 0.72 | 0.783 | 0.839 | 0.511 | 0.899 | 0.916 | 0.973 | 0.906 | 0.953 | 0.722 | 0.585 | 0.98 | 0.897 | 0.542
C=CCn1c(=O)c2cnc(Nc3ccc(N4CCN(C)CC4)cc3)nc2n1-c1cccc(C(C)(C)O)n1 [AZD1775] + Nc1ccn([C@@H]2O[C@H](CO)[C@@H](O)C2(F)F)c(=O)n1 [Gemcitabine] (first compound max 1 µM, partner max 0.3 µM) | 0.0556 | -0.0511 | 0.0581 | -0.0107 | 0.0411 | 0.0175 | -0.0157 | 0.0455 | 0.0864 | 0.0305 | -0.0379 | 0.0314 | 0.0642 | 0.0302 | 0.0084 | -0.0822 | 0.006 | 0.0019 | 0.0692 | 0.0417 | 0.987 | 0.559 | 0.643 | 0.836 | 0.983 | 0.802 | 0.653 | 0.778 | 0.899 | 0.533 | 0.803 | 0.871 | 0.968 | 0.906 | 0.95 | 0.656 | 0.44 | 0.985 | 0.521 | 0.481

Source: the supplement of paper PMC11061612
